In series [1] the test system is acetylcholine-induced abdominal constriction. Description: acetylcholine-induced abdominal constriction test (Ach). In kind it is in vivo, mice. Particulars: for ED50: Mus musculus, read-out: Ach ED50. The source says:
J. Pharmacol. Chemotherap. 32, 295 (1968); a modification of the anti-bradykinin test, which is also a primary analgesic screening procedure, described by Berkowitz et al., J. Pharmacol. Exp. Therap. 177, 500-508 (1971), Blane et al., J. Pharm. Pharmacol. 19, 367-373 (1967), Botha et al., Eur. J. Pharmacol. 6, 312-321 (1969) and Deffenu et al., J. Pharm. Pharmacol. 18, 135 (1966); the phenyl-p-quinone-induced writhing test, also a primary analgesic screening test, designed to measure the ability of a test agent to prevent phenyl-p-quinone-induced writhing in mice, described by Pearl and Harris, J. Pharmacol. Exptl. Therap. 154, 319-323 (1966); the rat tail flick radiant thermal heat analgesic (agonist) test described by D'Amour and Smith, J. Pharmacol. Exptl. Therap. 72, 74 (1941) as modified by Bass and VanderBrook, J. Am. Pharm. Assoc. Sci. Ed. 41, 569 (1956); and the phenazocine antagonist test, which is designed to measure the ability of a test agent to antagonize the effect of phenazocine in the above-indicated rat tail flick response test, described by Harris and Pierson, J. Pharmacol. Exptl. Therap. 143, 141 (1964).
The ED50 is the calculated Effective Dose in 50% of the test animals. The abbreviations s.c., p.o. and i.p. stand for subcutaneous, peroral and intraperitoneal routes of administration, respectively. The compounds are identified by the Example numbers above where their preparations are described.

The test system of series [2] is adjuvant-induced arthritis. Description: inhibition of adjuvant-induced arthritis test (A.A.). In kind it is in vivo. Particulars: oral; for inhibition in vivo at 5 µmol/kg: dose 0.005 millimoles/kg; for inhibition in vivo at 5 µmol/kg / inhibition in vivo at 20 µmol/kg / inhibition in vivo at 80 µmol/kg / inhibition in vivo at 324 µmol/kg: read-out: A.A. percent inhibition; for inhibition in vivo at 20 µmol/kg: dose 0.02 millimoles/kg; for inhibition in vivo at 80 µmol/kg: dose 0.08 millimoles/kg; for A.A. percent inhibition (Table B): formula V amides. The protocol:
(§1) Anti-inflammatory activity was determined using (1) the inhibition of carrageenin-induced foot edema test essentially described by Winter et al., Proc. Soc. Exp. Biol. and Med. 111, 554 (1962) as modified by Van Arman et al., J. Pharmacol. Exptl. Therap. 150, 328 (1965) and (2) a modification of the inhibition of adjuvant-induced arthritis test described by Pierson, J. Chronic Diseases 16, 863 (1963) and Glenn et al., Am. J. Vet. Res. 26, 1180 (1965).
(§2) The N-{2-,3- and 4-[R1 -(phenyl)-C(=X)]-phenyl-lower-alkyl}amines of formulas I, Ia and Ib of the invention have been tested in the carrageenin edema (CE) and adjuvant arthritis (AA) tests and found to have anti-inflammatory activity. For comparative purposes, data obtained in the carrageenin edema test on the reference compound (designated "Ref."), 4[(3-benzoylphenyl)methyl]morpholine, disclosed in French Patent 1,549,342, are also given. All data were obtained on oral administration.

For series [3], the system named is carrageenin-induced foot edema. Description: inhibition of carrageenin-induced foot edema test (C.E.). In kind it is in vivo. Particulars: oral; for inhibition in vivo at 20 µmol/kg: dose 0.02 millimoles/kg; for C.E. percent inhibition (Table B): formula V amides. The protocol: as §1, §2
On the technique in general: Carrageenan injected into the paw causes an acute inflammation.

Setting [4] is: read-out: C.E. percent inhibition.
[5] abbreviates: dose 0.08 millimoles/kg, read-out: C.E. percent inhibition.
Where [6] appears, read: dose 0.324 millimoles/kg, read-out: C.E. percent inhibition.

Where a name gives a salt, the structure may show the parent alone. Read-outs that look alike come from different tables or passages of the source.

What is called ED50 is the midpoint of the dose-response relation. Take `CC(CN1CCCCC1CC1CCCCC1)c1cccc(C(O)c2ccccc2)c1` (stereo not drawn) [Example 1, 2-cyclohexylmethyl-1-{2-[3-(α-hydroxybenzyl)phenyl]propyl}piperidine]: the median effective dose (ED50) in series [1] (po) stood at 71 mg/kg. Besides, the “Ach percent inhibition of writhing” value in series [1] (dose 25, s.c.) worked out at 7%; in series [1] (dose 75, s.c.), 33%. Further, the inhibition in vivo at 5 µmol/kg came out at 56% in series [2] and 13% in series [3] (dose 0.005 millimoles/kg, read-out: C.E. percent inhibition). In addition, the inhibition in vivo at 20 µmol/kg in series [2] was 73%; in series [3] (setting [4]) it was 23%. For the same molecule, the values for the inhibition in vivo at 80 µmol/kg in series [2] and in series [3] (setting [5]) were 91% and 60%, respectively. For the same molecule, the inhibition in vivo at 324 µmol/kg in series [3] (setting [6]) worked out at 73%.
`CC(CN1CCCCC1C1CCCCC1)c1cccc(C(=O)c2ccccc2)c1` (stereo not shown) [Example 7E, 2-Cyclohexyl-1-[2-(3-benzoylphenyl)propyl]piperidine]: the “Ach percent inhibition of writhing” value in series [1] (dose 25, s.c.) is 46%; in series [1] (dose 75, s.c.), 93%. In addition, the figures for the inhibition in vivo at 80 µmol/kg in series [2] and in series [3] (setting [5]) were 92% and 33%, respectively. The inhibition in vivo at 324 µmol/kg in series [3] (setting [6]) worked out at 58%.
As for `CC(CN1CCCCC1CCC1CCCCC1)c1cccc(C(=O)c2ccccc2)c1` (stereo not shown) [Example 7F, 2-(2-Cyclohexylethyl)-1-[2-(3-benzoylphenyl)propyl]piperidine], the “Ach percent inhibition of writhing” value was 7% in series [1] (dose 25, s.c.) and 33% in series [1] (dose 75, s.c.). Besides, the inhibition in vivo at 80 µmol/kg in series [2] was 91%; in series [3] (setting [5]), 33%. Also, the “toxicity” value in series [2] (dose 0.16 millimoles/kg) is “Toxic”. In addition, the inhibition in vivo at 324 µmol/kg in series [3] (setting [6]) was found to be 51%.
With `CC(CN1CCCCC1CC1CCCCC1)c1cccc(C(=O)c2ccccc2Cl)c1` (stereo not shown) [Example 20D, 2-Cyclohexylmethyl-1-{2-[3-(2-chlorobenzoyl)phenyl]propyl}piperidine], in series [2], the inhibition in vivo at 5 µmol/kg came to 35%, the inhibition in vivo at 20 µmol/kg amounted to 54% and the inhibition in vivo at 80 µmol/kg stood at 79%. In series [3] (dose 0.004 millimoles/kg, read-out: C.E. percent inhibition), the inhibition in vivo at 4 µmol/kg came to 0%. Also, the inhibition in vivo at 20 µmol/kg in series [3] (setting [4]) amounted to 36%.
For `CC(CN1CCOCC1)c1ccc(C(=O)c2ccccc2)cc1` (stereo not shown) [Example 24A, 4-[2-(4-benzoylphenyl)propyl]morpholine hydrochloride], the values for the inhibition in vivo at 324 µmol/kg in series [2] (dose 0.324 millimoles/kg) and in series [3] (setting [6]) were 78% and 56%, respectively. In series [3] (setting [5]), the inhibition in vivo at 80 µmol/kg was determined as 44%.
Regarding `CC(CN1CCC2(CC1)OCCO2)c1ccc(C(=O)c2ccccc2)cc1.Cl` (stereo not shown) [Example 24B, 8-[2-(4-benzoylphenyl)propyl]1,4-dioxa-8-azaspiro[4,5]decane hydrochloride], the inhibition in vivo at 80 µmol/kg in series [2] was determined as 30%; in series [3] (setting [5]), 38%. Further, the “toxicity” value in series [2] (dose 0.324 millimoles/kg) was “Toxic”. For the same molecule, the inhibition in vivo at 324 µmol/kg in series [3] (setting [6]) is 50%.
Regarding `CC(CN1CCNCC1)c1ccc(C(=O)c2ccccc2)cc1.Cl.Cl` (stereo not shown) [Example 24C, 1-[2-(4-benzoylphenyl)propyl]piperazine dihydrochloride], in series [1] (po), the ED50 stood at 20 mg/kg. Moreover, the inhibition in vivo at 324 µmol/kg in series [2] (dose 0.324 millimoles/kg) was 63%; in series [3] (setting [6]), 41%. The inhibition in vivo at 80 µmol/kg in series [3] (setting [5]) is 16%.
As for `CC(CN1CCSCC1)c1ccc(C(=O)c2ccccc2)cc1` (stereo not shown) [Example 24D, 4-[2-(4-benzoylphenyl)propy]thiomorpholine hydrochloride], the ED50 in series [1] (po) came out at 50 mg/kg. For the same molecule, the inhibition in vivo at 80 µmol/kg in series [2] was 28%; in series [3] (setting [5]), 61%. In addition, the inhibition in vivo at 324 µmol/kg in series [3] (setting [6]) was found to be 70%.
In the case of `CC(CN1CCC2(CC1)SCCS2)c1ccc(C(=O)c2ccccc2)cc1.Cl` (stereo not shown) [Example 24E, 8-[2-(4-benzoylphenyl)propyl]-1,4-dithia-8-azaspiro[4,5]decane hydrochloride], the ED50 in series [1] (po) came to 39 mg/kg.
With `CC(CN1CCC2(CC1)OCCS2)c1ccc(C(=O)c2ccccc2)cc1.Cl` (stereo not shown) [Example 24F, 8-[2-(4-benzoylphenyl)propyl]-1-oxa-4-thia-8-azaspiro[4,5]decane hydrochloride], the ED50 in series [1] (po) is 18 mg/kg.
For the molecule `CC(CN1CCNCC1)c1cccc(C(=O)c2ccccc2)c1.Cl.Cl` (stereo not shown) [Example 24G, 1-[2-(3-benzoylphenyl)propyl]piperazine dihydrochloride], the figures for the ED50 in series [1] (po) and in series [1] (sc) were 30 mg/kg and 5.6 mg/kg, respectively. In series [3] (setting [5]), the inhibition in vivo at 80 µmol/kg stood at 32%. The inhibition in vivo at 324 µmol/kg in series [3] (setting [6]) turned out to be 52%.
For `CC(C)(CN1CCOCC1)c1cccc(C(=O)c2ccccc2)c1.Cl` [Example 24H, 4-[2,2-dimethyl-2-(3-benzoylphenyl)ethyl]morpholine hydrochloride], the “Ach percent inhibition of writhing” value in series [1] (dose 25, s.c.) is 7%; in series [1] (dose 50, s.c.) it was 13%; in series [1] (dose 150, s.c.), 73%. Also, the inhibition in vivo at 324 µmol/kg in series [2] (dose 0.324 millimoles/kg) is 8%; in series [3] (setting [6]), 22%. The inhibition in vivo at 80 µmol/kg in series [3] (setting [5]) worked out at 0%.
Turning to `CC(C)(CN1CCC2(CC1)OCCO2)c1cccc(C(=O)c2ccccc2)c1.Cl` [Example 24J, 8-[2,2-dimethyl-2-(3-benzoylphenyl)ethyl]-1,4-dioxa-8-azaspiro[4,5]decane hydrochloride], the “Ach percent inhibition of writhing” value in series [1] (dose 25, s.c.) stood at 33%; in series [1] (dose 50, p.o.), 27%; in series [1] (dose 150, p.o.), 53%. In addition, the inhibition in vivo at 324 µmol/kg in series [2] (dose 0.324 millimoles/kg) turned out to be 36%; in series [3] (setting [6]), 8%. In addition, the inhibition in vivo at 80 µmol/kg in series [3] (setting [5]) amounted to 6%.
Consider `CC(C)(CN1CCOCC1)c1ccc(C(=O)c2ccccc2)cc1.Cl` [Example 24K, 4-[2,2-dimethyl-2-(4-benzoylphenyl)ethyl]morpholine hydrochloride], for which the ED50 in series [1] (po) was 38 mg/kg. The inhibition in vivo at 324 µmol/kg in series [2] (dose 0.324 millimoles/kg) stood at 7%; in series [3] (setting [6]) it was 60%. Also, in series [3] (setting [5]), the inhibition in vivo at 80 µmol/kg was 19%.
Consider `CC(C)(CN1CCC2(CC1)OCCO2)c1ccc(C(=O)c2ccccc2)cc1.Cl` [Example 24L, 8-[2,2-dimethyl-2-(4-benzoylphenyl)ethyl]-1,4-dioxa-8-azaspiro[4,5]decane hydrochloride], for which, in series [1] (po), the ED50 stood at 60 mg/kg. For the same molecule, the inhibition in vivo at 80 µmol/kg was 24% in series [2] and 46% in series [3] (setting [5]). The inhibition in vivo at 324 µmol/kg in series [3] (setting [6]) is 70%.
On to `CC(C(=O)N1CCN(C2CCCCC2)CC1)c1cccc(Cc2ccccc2)c1.Cl` (stereo not drawn) [Example 25, 4-cyclohexyl-1-[α-(3-benzylphenyl)propionyl]piperazine hydrochloride], for which the “A.A. percent inhibition (Table B)” value in series [2] (dose 0.162 millimoles/kg) came to 79%. Besides, the “C.E. percent inhibition (Table B)” value in series [3] (dose 0.08 millimoles/kg) is listed as 0%; in series [3] (dose 0.324 millimoles/kg) it was 45%.
For `CC(C(=O)N1CCN(C2CCCCCC2)CC1)c1cccc(Cc2ccccc2)c1.Cl` (stereo not drawn) [Example 25B, 4-Cycloheptyl-1-[α-(3-benzylphenyl)propionyl]piperazine hydrochloride], the “A.A. percent inhibition (Table B)” value in series [2] (dose 0.324 millimoles/kg) turned out to be 78%. Also, the results for the “C.E. percent inhibition (Table B)” value in series [3] (dose 0.08 millimoles/kg) and in series [3] (dose 0.324 millimoles/kg) were 25% and 44%, respectively.
